Results as given in patent publication US20250215021A1, “SYSTEMS AND METHODS UTILIZING THERANOSTIC AGENTS FOR BPCT AND BNCT FOR TARGETED CANCER TREATMENT” (University of Virginia Patent Foundation, priority 2022, published 2025).

Test system: MCF-10A epithelial cells
Assay: Cell uptake in MCF-10A (normal cell control)
Format: cell-based
Conditions: all concentrations tested
Method: Referring now to FIGS. 6A-6B, after confirming the structure and purity of the compound, further biological evaluation was performed. Preferential cancer cell uptake was evaluated in human breast cancer cells MCF-7 compared with MCF-10A epithelial cells. […] The cancer cell uptake was also confirmed by confocal microscopy. The concentration and constitutional stability of the compound in cancer cells was established by lysing the MCF-7 incubated with 5 μM of compound for 4 hrs. […] Inherent toxicity of the compound to both normal and cancer cells was evaluated using HMCD and 1-amino-1-carbadodecaborate as controls.

Question: How did the “uptake in MCF-10A cells” value turn out when `CC1(C)C(/C=C/C2=C(Cl)C(=C/C=C3/N(CCCCCC(=O)O)c4ccccc4C3(C)C)/CCC2)=[N+](CCCCS(=O)(=O)[O-])c2ccccc21` [parent HMCD] was run?
Answer: Its value is “no or poor uptake”.
